# Earlier results in patent publication US7029652B2, “Method of treating tumors” (The Regents of the University of California, priority 1998, dated 2006).
# Test system: HBT 3477 tumors
# Settings: 250 μg provided 1 hour before RIT; cited from earlier work
substance,measurement,value
cyclo-(Arg-Gly-Asp-D-Phe-1-aminocyclohexane carboxylic acid) [EMD 270179],increased uptake of RIT by HBT 3477 tumors,up to 50%
